Counter-ions that a name gives are not always drawn.

The test system of test [1] is HT-29 colon carcinoma cells. The experiment in a line: ECtfs (two-fold sensitization) assay, gemcitabine potentiation, MTS. Type of test: cell-based. As to the method: An inhibitor of Chk1 can potentiate the anti-proliferative activity of gemcitabine (or other cytotoxics) through abrogation of the intra-S phase checkpoint, resulting in sustained and increased DNA damage. The capacity for continued tumor cell proliferation after DNA damage can be analyzed by determining the ability of cells to replicate their DNA. […] In this assay, cells are treated with a dilution series of gemcitabine, and then 22 h later with the compound of Example 3, After an additional 44 h, the relative cell number is assessed by a MTS (3-(4,5-dimethylthiazol-2-yl)-5-(3-carboxymethoxyphenyl)-2-(4-sulfophenyl)-2H-tetrazolium) dye reduction assay. The ECtfs parameter is a measure of the concentration of a Chk1 inhibitor necessary to reduce by half the (1190 concentration of gemcitabine, measured in this assay in the absence of Chk1 inhibition. HT-29 cells (obtained from ATCC), are grown in RPMI 1640 plus 10% (v/v) heat inactivated FBS, The cells are plated at 2.5×10^3 per well, in a volume of 100 μL on 96-well tissue culture plates and incubated for 24 h. Gemcitabine dilutions are prepared at 6× concentrations in McCoy's 5A medium (modified) (1×) and added to wells at 20 μper well. Gemcitabine dilutions were set up with the highest final concentration of gemcitabine being 1.0 μM and dilutions made by three-fold steps to 0.5 nM.
Chk1 Inhibitor is prepared by dilutions in DMSO to 4000× final concentration, and then diluted 666-fold into McCoy's medium to generate 6× stocks. Chk1 inhibitor dilutions proceed by 2.5-fold steps starting at 25 nM down to 0.3 nM. Twenty-two hours 1.0 after gemcitabine addition, Chk1, inhibitor is added in a volume of 24 μL to wells containing 120 μL of medium plus gemcitabine. Each gemcitabine dilution receives a single Chk1 inhibitor dilution. Control wells received DMSO, gemcitabine, or Chk1 inhibitor alone. Forty-four hours after addition of Chk1 inhibitor, 30 μL of CellTiter 96® AQueous assay reagent, is added to each well and held at room temperature for 1 hour and 45 minutes. Absorbance is read on a SpectraMax 250 (Molecular Devices) spectrophotometer at 490 nm. Data from the SpectraMax spectrophotometer are analyzed with GraphPad Prism 4.0. First, an averaged no cell control absorbance is subtracted from all other values in the matrix of data from each plate. Next, duplicate data points are averaged. Data are normalized for each Chk1 inhibitor concentration, with 0% cell number set as corrected A490=0, and 100% cell number set as the 0 nM gemcitabine mean value. […] Gemcitabine concentrations are converted to log concentrations, and normalized cell number values are converted to percent inhibition (percent inhibition=1.00-normalized value). Transformed data are plotted, and a non-linear regression is run to estimate an IC50 value for gemcitabine at each Chk1 inhibitor concentration. The nonlinear regression is calculated allowing the slope to vary, and without constraints for the top or bottom of the dose-response curves. The ECtfs value is calculated as follows: GI50 values for gemcitabine for each Chk1 inhibitor concentration are determined, plotted, and the concentration of Chk1 inhibitor necessary to decrease the gemcitabine alone GI50 by two-fold is determined by interpolation.
Compounds within the scope of the invention are tested in this assay run substantially as above. For example, the compound of Example 3 is tested and found to have an ECtfs value of 1.0 nM (SE=0.1, n=3). […]

The target of test [2] is recombinant Chk2 protein kinase (Homo sapiens, UniProt O96017). Nature of the test: Chk2 biochemical assay (CHK2/substrate peptide filter binding). Conditions: 60 μM ATP, 1.4 nM Chk2 enzyme. As to the method:
The effect of compounds on Chk2 biochemical activity can be determined using a CHK2/substrate peptide filter binding assay. In this assay, a synthetic peptide based on the amino acid sequence residues 206-225 of Cdc25C, is used as a phospho-acceptor substrate for recombinant Chk2 protein kinase. Using γ-^33P-ATP as the phospho-donor substrate, Chk2 transfers the radioactive γ-^33phosphate group to the synthetic peptide. The reaction is measured by capturing the peptide substrate on a cation exchange paper filter plate and scintillation counting of emitted beta particles.
The kinase reactions (40 μL reaction volumes) are performed in 96-well V-bottom polystyrene plates. Reactions are initiated with the addition of Chk2 enzyme. […]
Following Chk2 enzyme addition, the reactions are incubated at room temperature for 90 min, and then terminated with the addition of 140 μL of phosphoric acid. […] After sitting for 4 h at room temperature, the radioactivity in the plate is measured using a MicroBeta Trilux microplate scintillation counter (Perkin Elmer).
For IC50 determination, the percent inhibition for each concentration is calculated using the […] from controls run on each plate. […] Absolute IC50 values are calculated from the resulting curve. […]

Chain of recombinant Chk2 protein kinase (O96017 whole entry, the tested form may be a part): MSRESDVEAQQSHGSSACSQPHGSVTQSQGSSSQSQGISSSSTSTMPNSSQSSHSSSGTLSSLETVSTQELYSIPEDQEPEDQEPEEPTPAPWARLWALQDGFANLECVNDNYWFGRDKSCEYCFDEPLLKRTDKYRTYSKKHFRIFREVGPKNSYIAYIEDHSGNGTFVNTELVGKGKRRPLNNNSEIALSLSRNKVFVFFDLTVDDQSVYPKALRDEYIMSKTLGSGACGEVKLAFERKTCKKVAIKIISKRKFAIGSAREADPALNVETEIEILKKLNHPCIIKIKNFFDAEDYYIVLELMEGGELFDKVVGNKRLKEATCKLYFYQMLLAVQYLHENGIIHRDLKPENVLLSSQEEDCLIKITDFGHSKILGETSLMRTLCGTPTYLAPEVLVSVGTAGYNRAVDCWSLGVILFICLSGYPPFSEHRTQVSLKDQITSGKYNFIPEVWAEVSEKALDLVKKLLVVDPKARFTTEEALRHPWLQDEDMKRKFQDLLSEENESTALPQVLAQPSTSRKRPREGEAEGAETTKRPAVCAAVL

For the molecule `COc1nc(C)ccc1-c1cc(Nc2cncc(O[C@@H]3CCCNC3)n2)[nH]n1` [Example 3, (R)-[5-(2-Methoxy-6-methyl-pyridin-3-yl)-2H-pyrazol-3-yl]-[6-(piperidin-3-yloxy)-pyrazin-2-yl]-amine acetic acid salt], in test [1] (HT-29 cells, 25 nM of the compound), the “decrease of the EC50 of gemcitabine” value is recorded as 7 fold. Moreover, the ECtfs value in test [1] (HT-29 cells, concentration that decreases the gemcitabine GI50 two-fold) was found to be 1.0 nM. Moreover, in test [1] (compound alone, 25 nM), the “effect on the proliferation of HT-29 cells” value is “little effect”.

`COc1nc(C)ccc1-c1cc(Nc2cncc(O[C@@H]3CCCNC3)n2)[nH]n1` [Example 1, (R)-[5-(2-Methoxy-6-methyl-pyridin-3-yl)-2H-pyrazol-3-yl]-[6-(piperidin-3-yloxy)-pyrazin-2-yl]-amine]: the IC50 (as a rule, the concentration at which inhibition is half-maximal) in test [2] came to 11 nM.

The values above are taken from patent publication US9067920B2, “Compounds useful for inhibiting Chk1” (Eli Lilly and Company, priority 2010, dated 2015).
